Assay [1] addresses phosphorylated Btk at Tyr223 in Ramos cells (Homo sapiens (Human), UniProt Q06187). Kind of assay: Btk pY223 cellular assay (HTRF) in Ramos cells. It counts as cell-based. The following applies: 1 hour compound incubation, pervanadate or Na3VO4 stimulation. For orientation: TR-FRET usually uses a lanthanide donor and a delayed reading to cut background.
Description: Btk pY223 cellular assay is a HTRF based assay intended to determine the endogenous levels of phosphorylated Btk at Tyr223.
Briefly, Ramos cells were serum starved in 0.5% FBS-containing RPMI1640 for 2 hours. Following starvation, the cells were incubated with compounds to be detected at various concentrations in a CO2 incubator for 1 hour. After incubation, cells were stimulated with 1 mM pervanadate (PV) or Na3VO4 (OV) for 20 min. Then, the cells were spinned down and lysed with 1× lysis buffer at RT for 10 min (4× lysis buffer supplied in the kit). During the incubation, 1× antibody mix was prepared by diluting anti-Btk-d2 and anti-pBtk-K in detection buffer (supplied in the kit). […] After that, 18 ul of cell lysate was transferred to the assay plate pre-loaded with antibody solution. After mixing gently and spinning briefly, the plate was sealed up and kept in dark at RT for 18 hours. […] IC50 values were calculated with GraphPad Prism software using the sigmoidal dose-response function.
The target of assay [2] is Recombinant Btk (Homo sapiens (Human), UniProt Q06187). In words: Btk kinase assay (TR-FRET).
Where [3] appears, read: read-out: IC50 (nM) Btk, recombinant Btk, 1 hour pre-incubation, ATP at Km.

Structures can show the parent of a compound that is named as a salt. Where two headings read alike, the source gives them in different places.

Recombinant Btk, sequence (Q06187 whole entry): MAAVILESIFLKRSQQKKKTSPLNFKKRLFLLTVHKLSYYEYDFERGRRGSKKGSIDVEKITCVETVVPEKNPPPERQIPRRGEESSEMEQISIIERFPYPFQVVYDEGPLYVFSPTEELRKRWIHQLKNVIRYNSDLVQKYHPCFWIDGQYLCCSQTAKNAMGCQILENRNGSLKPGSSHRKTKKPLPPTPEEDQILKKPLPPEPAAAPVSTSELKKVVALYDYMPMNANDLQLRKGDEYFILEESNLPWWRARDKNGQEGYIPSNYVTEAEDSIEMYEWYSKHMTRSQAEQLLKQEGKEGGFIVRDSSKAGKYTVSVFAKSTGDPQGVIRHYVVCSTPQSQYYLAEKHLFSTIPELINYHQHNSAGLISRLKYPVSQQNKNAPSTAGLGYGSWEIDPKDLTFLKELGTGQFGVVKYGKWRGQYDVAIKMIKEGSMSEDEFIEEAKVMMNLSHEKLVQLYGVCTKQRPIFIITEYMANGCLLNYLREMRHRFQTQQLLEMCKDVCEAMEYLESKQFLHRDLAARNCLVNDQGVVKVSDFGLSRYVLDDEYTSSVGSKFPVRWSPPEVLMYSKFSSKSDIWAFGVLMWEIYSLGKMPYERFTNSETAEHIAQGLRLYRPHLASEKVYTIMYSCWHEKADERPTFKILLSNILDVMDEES
phosphorylated Btk at Tyr223 in Ramos cells, sequence (Q06187 whole entry): as above

What is called IC50 is the concentration needed to halve the response being measured. On to `CN(C)C/C=C/C(=O)N1CCC(C2CCNc3c(C(N)=O)c(-c4ccc(Oc5ccccc5)cc4)nn32)CC1` (single isomer, unassigned) [Compound 171, (R or S) (E)-7-(1-(4-(Dimethylamino)but-2-enoyl)piperidin-4-yl)-2-(4-phenoxyphenyl)-4,5,6,7-tetrahydropyrazolo-[1,5-a]pyrimidine-3-carboxamide], for which the IC50 in assay [1] came to 10.9 nM; in assay [2], 1.4 nM.

Regarding `C=CC(=O)Nc1ccccc1C1CCNc2c(C(N)=O)c(-c3ccc(OCc4ccccc4)cc3)nn21` (stereo not shown) [Compound 10, 7-(2-Acrylamidophenyl)-2-(4-(benzyloxy)phenyl)-4,5,6,7-tetrahydro pyrazolo[1,5-a]pyrimidine-3-carboxamide], the IC50 turned out to be 8 nM in assay [1] and 1.5 nM in assay [2] (setting [3]).

For the compound `NC(=O)c1c(-c2ccc(Oc3ccccc3)cc2)nn2c1NCC[C@H]2C1CCN(C(=O)/C=C/CN2CCN(CCNC(=O)CCCC(=O)NCCCOCCOCCOCCCNC(=O)CCCC[C@H]3SC[C@H]4NC(=O)N[C@H]43)CC2)CC1` [Compound 178, N1-(2-(4-((E)-4-(4-((S)-3-carbamoyl-2-(4-phenoxyphenyl)-4,5,6,7-tetrahydropyrazolo[1,5-a]pyrimidin-7-yl)piperidin-1-yl)-4-oxobut-2-en-1-yl)piperazin-1-yl)ethyl)-N5-(15-oxo-19-((3aR,4R,6aS)-2-oxohexahydro-1H-thieno[3,4-d]imidazol-4-yl)-4,7,10-trioxa-14-azanonadecyl)glutaramide trifluoroacetate], the IC50 was more than 1000 nM in assay [1] and 46 nM in assay [2].

Consider `C=CC(=O)N1CC[C@H]2Nc3c(C(N)=O)c(-c4ccc(Oc5ccccc5)cc4)nn3C[C@H]2C1` [Compound 31], for which the IC50 in assay [2] (setting [3]) was 15 nM.

As to `C=CC(=O)Nc1ccc2c(c1)CCNc1c(C(N)=O)c(-c3ccc(Oc4ccccc4)cc3)nn1-2` [Compound 72, 8-Acrylamido-2-(4-phenoxyphenyl)-5,6-dihydro-4H-benzo[f]pyrazolo[1,5-a][1,3]diazepine-3-carboxamide], the half-maximal inhibitory concentration (IC50) in assay [1] was 10.5 nM; in assay [2] (IC50 (nM) Btk, recombinant Btk, 1 hour pre-incubation, ATP at Km), 4.1 nM.

With `CC#CC(=O)N1CC(C2CCNc3c(C(N)=O)c(-c4ccc(Oc5ccccc5)cc4)nn32)C1` (stereo not shown) [Compound 184, 7-(1-(But-2-ynoyl)azetidin-3-yl)-2-(4-phenoxyphenyl)-4,5,6,7-tetrahydropyrazolo-[1,5-a]pyrimidine-3-carboxamide], the IC50 in assay [1] came out at 6.7 nM.

In assay [1], `C=CC(=O)Nc1ccc2c(c1)CC(=O)Nc1c(C(N)=O)c(-c3ccc(Oc4ccccc4)cc3)nn1-2` [Compound 75, 8-Acrylamido-5-oxo-2-(4-phenoxyphenyl)-5,6-dihydro-4H-benzo[f]pyrazolo[1,5-a][1,3]diazepine-3-carboxamide] had a half-maximal inhibitory concentration (IC50) of 223 nM.

In turn, `CN(C)C/C=C/C(=O)N1CCc2[nH]c3c(C(N)=O)c(-c4ccc(Oc5ccccc5)cc4)nn3c2CC1` [Compound 122, (E)-7-(4-(dimethylamino)but-2-enoyl)-2-(4-phenoxyphenyl)-4,5,6,7,8,9-hexahydropyrazolo-[1′,5′:1,2]-imidazo[4,5-d]azepine-3-carboxamide] yielded a 50% inhibitory concentration (IC50) in assay [1] of 12.6 nM.

With `CN(C)C/C=C/C(=O)N1CCCc2[nH]c3c(C(N)=O)c(-c4ccc(Oc5ccccc5)cc4)nn3c2C1` [Compound 124, (E)-8-(4-(dimethylamino)but-2-enoyl)-2-(4-phenoxyphenyl)-4,5,6,7,8,9-hexahydropyrazolo-[5′,1′:2,3]-imidazo[4,5-c]azepine-3-carboxamide], 4.6 nM corresponded to half-maximal inhibition in assay [1] (IC50).

`C=CC(=O)NC1CNc2c(C(N)=O)c(-c3ccc(Oc4ccccc4)cc3)nn2C1` (stereo not shown) [Compound 85, 6-Acrylamido-2-(4-phenoxyphenyl)-4,5,6,7-tetrahydropyrazolo[1,5-a]pyrimidine-3-carboxamide] gave an IC50 in assay [1] of 73.2 nM.

On to `CN(C)C/C=C/C(=O)Nc1ccccc1C1CCNc2c(C(N)=O)c(-c3ccc(Oc4ccccc4)cc3)nn21` (stereo not shown) [Compound 92, (E)-7-(2-(4-(dimethylamino)but-2-enamido)-phenyl)-2-(4-phenoxyphenyl)-4,5,6,7-tetrahydropyrazolo-[1,5-a]pyrimidine-3-carboxamide], for which, in assay [1], the IC50 stood at 7 nM.

Consider `COc1cc(-c2nn3c(c2C(N)=O)NCCC3c2ccccc2NC(=O)/C=C/CN(C)C)ccc1C` (stereo not shown) [Compound 165, (E)-7-(2-(4-(Dimethylamino)but-2-enamido)phenyl)-2-(3-methoxy-4-methylphenyl)-4,5,6,7-tetrahydropyrazolo[1,5-a]pyrimidine-3-carboxamide], for which the IC50 in assay [1] was 19.1 nM.

Turning to `C=CC(=O)N1CC[C@H]2[C@H](CNc3c(C(N)=O)c(-c4ccc(Oc5ccccc5)cc4)nn32)C1` (relative stereo) [Compound 30, Cis-7-Acryloyl-2-(4-phenoxyphenyl)-4,5,5a,6,7,8,9,9a-octahydro pyrazolo[1,5-a]pyrido[3,4-e]pyrimidine-3-carboxamide and Cis-7-acryloyl-2-(4-phenoxyphenyl)-4,4a,5,6,7,8,8a,9-octahydropyrazolo[1,5-a]pyrido[4,3-d]pyrimidine-3-carboxamide], the concentration for half-maximal inhibition (IC50) in assay [1] is 4 nM; in assay [2], 1 nM.

The compound `C=CC(=O)N1CC(C2CCNc3c(C(N)=O)c(-c4ccc(Oc5cccc(Cl)c5)cc4)nn32)C1` (stereo not shown) [Compound 107, 7-(1-acryloylazetidin-3-yl)-2-(4-(3-chlorophenoxy)phenyl)-4,5,6,7-tetrahydropyrazolo[1,5-a]pyrimidine-3-carboxamide] registered an IC50 in assay [1] of 11.2 nM.

Compound `CN(C)CC#CC(=O)N1CCC([C@@H]2CCNc3c(C(N)=O)c(-c4ccc(Oc5ccccc5)cc4)nn32)CC1` [Compound 188, (S)-7-(1-(4-(Dimethylamino)but-2-ynoyl)piperidin-4-yl)-2-(4-phenoxyphenyl)-4,5,6,7-tetrahydropyrazolo-[1,5-a]pyrimidine-3-carboxamide] yielded an IC50 in assay [1] of 8.5 nM.

The compound `NC(=O)c1c(-c2ccc(Oc3ccccc3)cc2)nn2c1NCC[C@H]2C1CCN(C(=O)CCCl)CC1` [Compound 177, (S)-7-(1-(3-chloropropanoyl)piperidin-4-yl)-2-(4-phenoxy-phenyl)-4,5,6,7-tetrahydropyrazolo-[1,5-a]pyrimidine-3-carboxamide] gave a 50% inhibitory concentration (IC50) in assay [1] of 3.9 nM.

As for `CN(C)C/C=C/C(=O)N1CCc2c([nH]c3c(C(N)=O)c(-c4ccc(Oc5ccccc5)cc4)nn23)C1` [Compound 64, (E)-6-(4-(Dimethylamino)but-2-enoyl)-2-(4-phenoxyphenyl)-5,6,7,8-tetrahydro-4H-pyrazolo[1′,5′:1,2]imidazo[4,5-c]pyridine-3-carboxamide trifluoroacetate], 4.8 nM corresponded to half-maximal inhibition in assay [1] (IC50).

These data come from patent US9447106B2, “Substituted pyrazolo[1,5-a]pyrimidines as bruton's tyrosine kinase modulators” (Beigene, Ltd., priority 2013, dated 2016).
